Experimental data taken from patent publication US20220064138A1, “MACROLIDE BREFELDIN A ESTER DERIVATIVES AND USE THEREOF” (OCEAN UNIVERSITY OF CHINA, priority 2019, published 2022).

How the values were obtained:
Assay in all cases: Cell proliferation assay (CCK-8)
Assay type in all cases: cell-based
[1] = system: pancreatic cancer PANC-1 cells; conditions: Homo sapiens, PANC-1, 72 h
Description: (§1) CCK-8 method: The CCK-8 method is a highly sensitive, non-radioactive colorimetric assay for the determination of the number of viable cells in cell proliferation or cytotoxicity assays. The orange formazan dye produced by the bioreduction of CCK-8 by intracellular dehydrogenase is soluble in the cell culture medium, and the amount of formazan dye produced is proportional to the number of living cells. The kit used in this method is the tetrazolium salt-WST-8 (2-(2-methoxy-4-nitrophenyl)-3-(4-nitrophenyl)-5-(2,4-disulfophenyl)-2H-tetrazolium monosodium salt) developed by Dojindo Chemical Research Institute (Dojindo), which is capable of being reduced to a water-soluble formazan dye in the presence of the electronic carrier 1-Methoxy PMS.
(§2) Human cervical cancer Hela cells, pancreatic cancer PANC-1 cells, esophageal cancer Eca-109 cells, human leukemia K562 cells, human lung cancer A549 cells, human liver cancer HepG2 cells, human gastric cancer MKN-45 cells, human breast cancer MCF7 cells were cultured in DMEM medium containing 10% FBS (fetal bovine serum), 100 U/mL penicillin and 100 μg/ml streptomycin. Hepatocellular carcinoma cells Bel-7402 were cultured in RPMI-1640 medium containing 10% FBS (fetal bovine serum), 100 U/ml penicillin and 100 μg/ml streptomycin. All cells were placed in a cell culture incubator at 37° C. with 5% CO2. Cells fluid was changed every 3-5 days, and after 80% cell fusion, trypsin digestion and passaging were performed to keep the cells in good logarithmic growth phase.
(§3) All the samples to be tested were dissolved in DMSO.
(§4) Cells in logarithmic growth phase were inoculated in 96-well plates with 5000 cells/well respectively, and after 24 h of incubation, samples were added (final concentrations as shown in the table), and biplicate wells were set up for each sample. The amount of solvent of DMSO was not higher than 2‰. After 72 h, 10 μL of CCK-8 solution was added to each well and incubated for 1.5˜3 h at 37° C. The OD value at 450 nm was measured on an plate reader.
(§5) Inhibition rate (%)=(1−[(OD450 dosed well−OD450 blank well)/(OD450 control well−OD450 blank well)])×100%
(§6) The fitted IC50 values were calculated using the log (inhibitor) vs. response-Variable slop analysis method in GraphPad Prism software.

[2] = system: esophageal cancer Eca-109 cells; conditions: Homo sapiens, Eca-109, 72 h
Description: as §1, §2, §3, §4, §5, §6

[3] = system: human breast cancer MCF7 cells; conditions: MCF7, 72 h
Description: as §1, §2, §3, §4, §5, §6

[4] = system: human liver cancer HepG2 cells; conditions: HepG2, 72 h
Description: as §1, §2, §3, §4, §5, §6

[5] = system: human leukemia K562 cells; conditions: K562, 72 h
Description: as §1, §2, §3, §4, §5, §6

[6] = system: human lung cancer A549 cells; conditions: A549, 72 h
Description: as §1, §2, §3, §4, §5, §6

[7] = system: human gastric cancer MKN-45 cells; conditions: MKN-45, 72 h
Description: as §1, §2, §3, §4, §5, §6

[8] = system: Human cervical cancer Hela cells; conditions: 72 h
Description: as §1, §2, §3, §4, §5, §6

Structure (SMILES) | IC50 [1] [nM] | IC50 [2] [nM] | IC50 [3] [nM] | IC50 [4] [nM] | IC50 [5] [nM] | IC50 [6] [nM] | IC50 [7] [nM] | IC50 [8] [nM]
C[C@H]1CCC/C=C/[C@@H]2C[C@H](OC(=O)/C=C/c3ccccc3F)C[C@H]2[C@H](O)/C=C/C(=O)O1 [Compound 2a, 7-O-(2-fluorocinnamic acid)acyl BFA] | 100 to 1000 | 1000 to 10000 | 100 to 1000 | 100 to 1000 | 100 to 1000 | 100 to 1000 | 100 to 1000 | 1000 to 10000
C[C@H]1CCC/C=C/[C@@H]2C[C@H](O)C[C@H]2[C@H](OC(=O)/C=C/c2ccccc2F)/C=C/C(=O)O1 [Compound 2b, 4-O-(2-fluorocinnamic acid)acyl BFA] | 100 to 1000 | 1000 to 10000 | 100 to 1000 | 100 to 1000 | 100 to 1000 | 100 to 1000 | 100 to 1000 | 1000 to 10000
C[C@H]1CCC/C=C/[C@@H]2C[C@H](OC(=O)/C=C/c3ccccc3F)C[C@H]2[C@H](OC(=O)/C=C/c2ccccc2F)/C=C/C(=O)O1 [Compound 2c, 4,7-O-bis(2-fluorocinnamic acid)acyl BFA] | 1000 to 10000 | 1000 to 10000 | 1000 to 10000 | 1000 to 10000 | 100 to 1000 | 1000 to 10000 | 100 to 1000 | 1000 to 10000
C[C@H]1CCC/C=C/[C@@H]2C[C@H](OC(=O)/C=C/c3ccc(F)cc3)C[C@H]2[C@H](O)/C=C/C(=O)O1 [Compound 3a, 7-O-(4-fluorocinnamic acid)acyl BFA] | 100 to 1000 | 1000 to 10000 | 100 to 1000 | 100 to 1000 | 100 to 1000 | 100 to 1000 | 100 to 1000 | 1000 to 10000
C[C@H]1CCC/C=C/[C@@H]2C[C@H](O)C[C@H]2[C@H](OC(=O)/C=C/c2ccc(F)cc2)/C=C/C(=O)O1 [Compound 3b, 4-O-(4-fluorocinnamic acid)acyl BFA] | 100 to 1000 | 1000 to 10000 | 100 to 1000 | 100 to 1000 | 100 to 1000 | 100 to 1000 | 100 to 1000 | 100 to 1000
C[C@H]1CCC/C=C/[C@@H]2C[C@H](OC(=O)/C=C/c3ccc(F)cc3)C[C@H]2[C@H](OC(=O)/C=C/c2ccc(F)cc2)/C=C/C(=O)O1 [Compound 3c, 4,7-O-bis(4-fluorocinnamic acid)acyl BFA] | 100 to 1000 | 1000 to 10000 | 1000 to 10000 | 1000 to 10000 | 1000 to 10000 | 100 to 1000 | 1000 to 10000 | 1000 to 10000
C[C@H]1CCC/C=C/[C@@H]2C[C@H](OC(=O)/C=C/c3ccccc3Br)C[C@H]2[C@H](O)/C=C/C(=O)O1 [Compound 4a, 7-O-(2-bromocinnamic acid)acyl BFA] | 100 to 1000 | 100 to 1000 | 100 to 1000 | 100 to 1000 | 100 to 1000 | 100 to 1000 | 100 to 1000 | 100 to 1000
C[C@H]1CCC/C=C/[C@@H]2C[C@H](O)C[C@H]2[C@H](OC(=O)/C=C/c2ccccc2Br)/C=C/C(=O)O1 [Compound 4b, 4-O-(2-bromocinnamic acid)acyl BFA] | 100 to 1000 | 100 to 1000 | 100 to 1000 | 100 to 1000 | 100 to 1000 | 100 to 1000 | 100 to 1000 | 100 to 1000
C[C@H]1CCC/C=C/[C@@H]2C[C@H](OC(=O)/C=C/c3ccccc3Br)C[C@H]2[C@H](OC(=O)/C=C/c2ccccc2Br)/C=C/C(=O)O1 [Compound 4c, 4,7-O-bis(2-bromocinnamic acid)acyl BFA] | 1000 to 10000 | 1000 to 10000 | 1000 to 10000 | 1000 to 10000 | 1000 to 10000 | 100 to 1000 | 100 to 1000 | 100 to 1000
C[C@H]1CCC/C=C/[C@@H]2C[C@H](OC(=O)/C=C/c3cccc(Cl)c3)C[C@H]2[C@H](O)/C=C/C(=O)O1 [Compound 5a, 7-O-(3-chlorocinnamic acid)acyl BFA] | 100 to 1000 | 1000 to 10000 | 100 to 1000 | 100 to 1000 | 100 to 1000 | 100 to 1000 | 100 to 1000 | 100 to 1000
C[C@H]1CCC/C=C/[C@@H]2C[C@H](O)C[C@H]2[C@H](OC(=O)/C=C/c2cccc(Cl)c2)/C=C/C(=O)O1 [Compound 5b, 4-O-(3-chlorocinnamic acid)acyl BFA] | 100 to 1000 | 100 to 1000 | 100 to 1000 | 100 to 1000 | 100 to 1000 | 100 to 1000 | 100 to 1000 | 100 to 1000
C[C@H]1CCC/C=C/[C@@H]2C[C@H](OC(=O)/C=C/c3cccc(Cl)c3)C[C@H]2[C@H](OC(=O)/C=C/c2cccc(Cl)c2)/C=C/C(=O)O1 [Compound 5c, 4,7-O-bis(3-chlorocinnamic acid)acyl BFA] | 1000 to 10000 | 1000 to 10000 | 1000 to 10000 | 1000 to 10000 | 1000 to 10000 | 100 to 1000 | 100 to 1000 | 100 to 1000
Cc1cccc(/C=C/C(=O)O[C@@H]2C[C@H]3[C@H](O)/C=C/C(=O)O[C@@H](C)CCC/C=C/[C@@H]3C2)c1 [Compound 6a, 7-O-(3-methylcinnamic acid)acyl BFA] | 100 to 1000 | 100 to 1000 | 100 to 1000 | 1000 to 10000 | 100 to 1000 | 100 to 1000 | 100 to 1000 | 1000 to 10000
Cc1cccc(/C=C/C(=O)O[C@@H]2/C=C/C(=O)O[C@@H](C)CCC/C=C/[C@@H]3C[C@H](O)C[C@H]32)c1 [Compound 6b, 4-O-(3-methylcinnamic acid)acyl BFA] | 100 to 1000 | 100 to 1000 | 100 to 1000 | 100 to 1000 | 100 to 1000 | 100 to 1000 | 100 to 1000 | 100 to 1000
Cc1cccc(/C=C/C(=O)O[C@@H]2C[C@@H]3[C@H](/C=C/CCC[C@H](C)OC(=O)/C=C/[C@H]3OC(=O)/C=C/c3cccc(C)c3)C2)c1 [Compound 6c, 4,7-O-bis(3-methylcinnamic acid)acyl BFA] | 1000 to 10000 | 100 to 1000 | 1000 to 10000 | 1000 to 10000 | 1000 to 10000 | 1000 to 10000 | 100 to 1000 | 1000 to 10000
Cc1ccc(/C=C/C(=O)O[C@@H]2C[C@H]3[C@H](O)/C=C/C(=O)O[C@@H](C)CCC/C=C/[C@@H]3C2)cc1 [Compound 7a, 7-O-(4-methylcinnamic acid)acyl BFA] | 100 to 1000 | 1000 to 10000 | 1000 to 10000 | 1000 to 10000 | 1000 to 10000 | 100 to 1000 | 100 to 1000 | 1000 to 10000
Cc1ccc(/C=C/C(=O)O[C@@H]2/C=C/C(=O)O[C@@H](C)CCC/C=C/[C@@H]3C[C@H](O)C[C@H]32)cc1 [Compound 7b, 4-O-(4-methylcinnamic acid)acyl BFA] | 100 to 1000 | 100 to 1000 | 100 to 1000 | 100 to 1000 | 1000 to 10000 | 100 to 1000 | 100 to 1000 | 1000 to 10000
Cc1ccc(/C=C/C(=O)O[C@@H]2C[C@@H]3[C@H](/C=C/CCC[C@H](C)OC(=O)/C=C/[C@H]3OC(=O)/C=C/c3ccc(C)cc3)C2)cc1 [Compound 7c, 4,7-O-bis(4-methylcinnamic acid)acyl BFA] | 1000 to 10000 | 100 to 1000 | 1000 to 10000 | 1000 to 10000 | 1000 to 10000 | 1000 to 10000 | 100 to 1000 | 1000 to 10000
Cc1ccccc1/C=C/C(=O)O[C@@H]1C[C@H]2[C@H](O)/C=C/C(=O)O[C@@H](C)CCC/C=C/[C@@H]2C1 [Compound 8a, 7-O-(2-methylcinnamic acid)acyl BFA] | 100 to 1000 | 100 to 1000 | 100 to 1000 | 1000 to 10000 | 1000 to 10000 | 100 to 1000 | 100 to 1000 | 1000 to 10000
Cc1ccccc1/C=C/C(=O)O[C@@H]1/C=C/C(=O)O[C@@H](C)CCC/C=C/[C@@H]2C[C@H](O)C[C@H]21 [Compound 8b, 4-O-(2-methylcinnamic acid)acyl BFA] | 100 to 1000 | 100 to 1000 | 100 to 1000 | 100 to 1000 | 1000 to 10000 | 100 to 1000 | 100 to 1000 | 1000 to 10000
